In ChEMBL document CHEMBL1926637, “Stereoselective synthesis and QSAR study of cytotoxic 2-(4-oxo-thiazolidin-2-ylidene)-2-cyano-N-arylacetamides” (Eur J Med Chem, 2012):

Tests used:
Assay type in all cases: functional, cell-based
HepG2 = assay: Cytotoxicity against human HepG2 cells after 48 hrs by sulforhodamine B assay; conditions: HepG2, 48 h
MCF7 = assay: Cytotoxicity against human MCF7 cells after 48 hrs by sulforhodamine B assay; conditions: MCF7, 48 h
HCT-116 = assay: Cytotoxicity against human HCT116 cells after 48 hrs by sulforhodamine B assay; conditions: HCT-116, 48 h

Compound | IC50 (HepG2) | IC50 (MCF7) | IC50 (HCT-116)
N#C/C(C(=O)Nc1ccccc1)=c1/s/c(=C\c2ccccc2)c(=O)n1-c1ccccc1 | 11 µM | 75.3 µM | 33.3 µM
COc1ccc(/C=c2\s/c(=C(/C#N)C(=O)Nc3ccccc3)n(-c3ccccc3)c2=O)cc1 | 30.4 µM | 7.89 µM | 6.61 µM
N#C/C(C(=O)Nc1ccccc1)=c1/s/c(=C\c2ccccc2O)c(=O)n1-c1ccccc1 | 83 µM | 8.85 µM | 7.8 µM
Cc1ccc(NC(=O)/C(C#N)=c2\s/c(=C\c3ccccc3)c(=O)n2-c2ccccc2)cc1 | 38.2 µM | 55.5 µM | 11 µM
COc1ccc(/C=c2\s/c(=C(/C#N)C(=O)Nc3ccc(C)cc3)n(-c3ccccc3)c2=O)cc1 | 37.4 µM | > 107 µM | 9.95 µM
Cc1ccc(NC(=O)/C(C#N)=c2\s/c(=C\c3ccc(Cl)cc3)c(=O)n2-c2ccccc2)cc1 | 48.3 µM | 28.6 µM | 28.4 µM
Cc1ccc(NC(=O)/C(C#N)=c2\s/c(=C\c3ccccc3O)c(=O)n2-c2ccccc2)cc1 | 8.25 µM | > 110 µM | 6.92 µM
N#C/C(C(=O)Nc1ccc(Cl)cc1)=c1/s/c(=C\c2ccccc2)c(=O)n1-c1ccccc1 | 49.1 µM | 77.5 µM | 38.9 µM
N#C/C(C(=O)Nc1ccc(Cl)cc1)=c1/s/c(=C\c2ccc(Cl)cc2)c(=O)n1-c1ccccc1 | > 102 µM | > 102 µM | 9.15 µM
N#C/C(C(=O)Nc1ccc(Cl)cc1)=c1/s/c(=C\c2ccccc2O)c(=O)n1-c1ccccc1 | 12.4 µM | 7.89 µM | 6.92 µM
N#C/C(C(=O)Nc1ccccc1)=C1/S/C(=N\Nc2ccccc2)C(=O)N1c1ccccc1 | 18.8 µM |  | > 114 µM
COc1ccc(N/N=C2\S/C(=C(/C#N)C(=O)Nc3ccccc3)N(c3ccccc3)C2=O)cc1 |  | 17.6 µM | 46.4 µM
Cc1ccc(NC(=O)/C(C#N)=C2\S/C(=N\Nc3ccccc3)C(=O)N2c2ccccc2)cc1 | 24.2 µM |  | > 110 µM
COc1ccc(N/N=C2\S/C(=C(/C#N)C(=O)Nc3ccc(C)cc3)N(c3ccccc3)C2=O)cc1 | 34.1 µM |  | > 103 µM
Cc1ccc(NC(=O)/C(C#N)=C2\S/C(=N\Nc3ccc(Cl)cc3)C(=O)N2c2ccccc2)cc1 |  | > 102 µM | 14.9 µM
COc1cccc2c1C(=O)c1c(O)c3c(c(O)c1C2=O)C[C@@](O)(C(=O)CO)C[C@@H]3O[C@H]1C[C@H](N)[C@H](O)[C@H](C)O1 [DOXORUBICIN] | 7.36 µM |  | 6.86 µM
